# Experimental data from patent US20090104167A1, “Prophylactic/Ameliorating Agent for Menopausal Disorder and Functional Beverage/Food” (Calpis Co., Ltd., priority 2005, published 2009).
# What was measured:
# [1] = biological target: T1, human estrogen receptor α (Homo sapiens, UniProt P03372); experiment: Inhibition of [3H]estradiol binding to estrogen receptor α; conditions: for binding inhibition rate to estrogen receptor α, inhibition rate (%): One millimolar test sample, 0.5 nM tritium-labeled estradiol, 25° C., 2 hours, pH 7.4
# T1 sequence (P03372 1-595): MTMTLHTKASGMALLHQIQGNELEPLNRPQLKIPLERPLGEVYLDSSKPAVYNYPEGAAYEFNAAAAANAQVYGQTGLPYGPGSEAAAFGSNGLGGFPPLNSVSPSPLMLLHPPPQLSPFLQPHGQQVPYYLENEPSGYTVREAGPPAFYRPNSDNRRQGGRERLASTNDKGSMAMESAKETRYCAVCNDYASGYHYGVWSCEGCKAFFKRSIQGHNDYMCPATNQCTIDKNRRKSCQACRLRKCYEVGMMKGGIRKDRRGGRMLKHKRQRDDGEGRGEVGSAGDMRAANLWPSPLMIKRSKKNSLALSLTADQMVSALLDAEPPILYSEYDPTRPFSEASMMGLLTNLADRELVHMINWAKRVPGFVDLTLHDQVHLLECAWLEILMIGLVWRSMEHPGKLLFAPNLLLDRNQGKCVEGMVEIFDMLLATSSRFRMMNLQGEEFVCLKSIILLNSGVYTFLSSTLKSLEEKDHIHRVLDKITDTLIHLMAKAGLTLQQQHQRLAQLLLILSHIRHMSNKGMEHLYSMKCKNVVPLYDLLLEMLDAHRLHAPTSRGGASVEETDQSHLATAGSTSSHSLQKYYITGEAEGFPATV
# Procedure: (§1) One millimolar of a test sample (pinoresinol diglycoside, pinoresinol and secoisolariciresinol) and 0.5 nM of tritium-labeled estradiol were reacted in 10 mM of tris buffer at pH 7.4 (with 0.1% BSA, 10% Glycerol, 1 mM DTT) containing a human estrogen receptor α or β at 25° C. for 2 hours. After completion of the reaction, the receptor was collected and washed to measure the amount of the tritium-labeled estradiol bound to the receptor according to a conventional method. The binding level of [^3H] Estradiol in the presence of a lignan or a metabolic intermediate was calculated with the binding of 0.5 nM of [^3H] Estradiol to the receptor as 100%, which was subtracted from 100 to define a binding inhibition rate.
# [2] = biological target: human estrogen receptor β (Homo sapiens, UniProt Q92731); experiment: Inhibition of [3H]estradiol binding to estrogen receptor β; conditions: One millimolar test sample, 0.5 nM tritium-labeled estradiol, 25° C., 2 hours, pH 7.4
# Sequence of human estrogen receptor β (Q92731 whole entry): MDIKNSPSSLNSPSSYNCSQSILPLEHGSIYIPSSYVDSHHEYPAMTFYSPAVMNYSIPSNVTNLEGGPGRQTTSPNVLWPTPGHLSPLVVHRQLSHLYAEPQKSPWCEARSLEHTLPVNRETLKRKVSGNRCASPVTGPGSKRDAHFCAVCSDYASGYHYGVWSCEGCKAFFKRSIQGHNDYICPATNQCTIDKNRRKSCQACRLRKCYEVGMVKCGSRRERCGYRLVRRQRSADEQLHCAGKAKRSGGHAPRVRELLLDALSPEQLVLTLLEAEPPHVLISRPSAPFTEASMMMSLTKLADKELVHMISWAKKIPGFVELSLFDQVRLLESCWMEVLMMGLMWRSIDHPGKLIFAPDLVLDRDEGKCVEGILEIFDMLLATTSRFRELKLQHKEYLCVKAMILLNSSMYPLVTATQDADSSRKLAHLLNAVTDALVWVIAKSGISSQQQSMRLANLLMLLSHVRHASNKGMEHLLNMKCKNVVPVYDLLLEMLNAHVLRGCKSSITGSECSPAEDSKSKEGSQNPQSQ
# Procedure: as §1
# [3] = Lignan-metabolizing ability of microorganisms: conversion of pinoresinol to secoisolariciresinol (HPLC); design: key to pinoresinol to secoisolariciresinol: o indicates that the lignan was converted in 50% or more; x indicates that most of the lignan was not converted; conditions: for pinoresinol to secoisolariciresinol: lignan 0.5 mM in MRS or GAM medium, culture at 37° C., HPLC
# Procedure: Lignan-metabolizing abilities of various types of microorganisms were evaluated. The various microorganisms shown in the following Tables 1 to 3 were pre-cultured in MRS medium or GAM medium at 37° C. for 20 to 24 hours, and inoculated at 1 to 3% to 10 ml of MRS medium or GAM medium Du zhong lignan (pinoresinol and medioresinol) was added at a final concentration of 0.5 mM in the medium, and continued to culture at 37° C. Samples were taken at regular intervals and assayed by HPLC to monitor the conversion of lignan to secoisolariciresinol.
Compound,"binding inhibition rate to estrogen receptor α, inhibition rate (%) [1] [%]","binding inhibition rate to estrogen receptor β, inhibition rate (%) [2] [%]",pinoresinol to secoisolariciresinol [3],also measured
COc1cc([C@H]2OC[C@H]3[C@@H]2CO[C@@H]3c2ccc(O[C@@H]3O[C@H](CO)[C@@H](O)[C@H](O)[C@H]3O)c(OC)c2)ccc1O[C@@H]1O[C@H](CO)[C@@H](O)[C@H](O)[C@H]1O [pinoresinol diglycoside],4,5,–,–
COc1cc(C[C@@H](CO)[C@H](CO)Cc2ccc(O)c(OC)c2)ccc1O [secoisolariciresinol],43,52,–,"binding inhibition rate to an estrogen receptor relative to pinoresinol diglycoside ([1]; estrogen receptor subtype not specified, versus pinoresinol diglycoside): ten times higher"
Bifidobacterium,–,–,x,–
Lactobacillus acidophilus,–,–,∘,ability to produce secoisolariciresinol from pinoresinol (in words) ([3]; summary of Tables 1 to 3): capable of producing secoisolariciresinol from pinoresinol
Lactobacillus plantarum,–,–,x,–
Lactobacillus reuteri,–,–,x,–
pinoresinol,23,30,–,–
